{
  "source": "patent US4785090A",
  "about": "“Cephalosporin derivatives” (Meiji Seika Kaisha, Ltd., priority 1984, dated 1988)",
  "key": {"Eshcerichia coli GN 206": {"tested_on": "Eshcerichia coli GN 206", "experiment": "Minimum Growth Inhibitory Concentration (MIC), Escherichia coli GN 206", "format": "cell-based", "text": "(§1) Minimum Growth Inhibitory Concentration (MIC) mcg/ml\n4. Eshcerichia coli GN 206"}, "[1]": {"tested_on": "Serratia marcescens No. 2", "experiment": "Minimum Growth Inhibitory Concentration (MIC), Serratia marcescens No. 2", "format": "cell-based", "conditions": "Serratia marcescens, NO.2, read-out: Minimum Growth Inhibitory Concentration (MIC)", "text": "as §1\n10. Serratia marcescens No. 2"}, "[2]": {"experiment": "Serum concentration in mice after subcutaneous administration", "format": "in vivo", "conditions": "mouse, sc, subcutaneous 25 mg/kg; for concentration at 0.5 h: 1/2 hr; for concentration at 0.25 h: 1/4 hr; for concentration at 5 min: 1/12 hr", "description": "The experiment was conducted by using 3 mice (average body weight 20 g) in each group, subcutaneously administering 25 mg/kg of the sample, taking blood samples at predetermined intervals, separating the serum and measuring the sample concentration by an antibacterial activity test using Escherichia coli as a testing bactera."}, "[3]": {"experiment": "Toxicity test in mice (intravenous)", "format": "in vivo", "conditions": "for LD50 at 168 h: mouse, in vivo", "text": "Further, the compound of Example 28 was intravenously adminstered to 3 mice at a dose of 1 g/kg and also the compounds of Examples 34 and 51 were similarly administered at a dose of 3 g/kg respectively, and the number of survivor was examined after a week."}, "[4]": {"tested_on": "Klebsiella pneumoniae PCI 602", "experiment": "Minimum Growth Inhibitory Concentration (MIC), Klebsiella pneumoniae PCI 602", "format": "cell-based", "conditions": "Klebsiella pneumoniae, PCI602, read-out: Minimum Growth Inhibitory Concentration (MIC)", "text": "as §1\n5. Klebsiella pneumoniae PCI 602"}, "Proteus vulgaris GN 76": {"tested_on": "Proteus vulgaris GN 76", "experiment": "Minimum Growth Inhibitory Concentration (MIC), Proteus vulgaris GN 76", "format": "cell-based", "text": "as §1\n10. Proteus vulgaris GN 76\nas §1\n8. Proteus vulgaris GN 76"}, "[5]": {"tested_on": "Staphylococcus aureus 209PJC1", "experiment": "Minimum Growth Inhibitory Concentration (MIC), Staphylococcus aureus 209PJC1", "format": "cell-based", "text": "as §1\n1. Staphylococcus aureus 209PJC1\nas §1\n2. Staphylococcus aureus 209 PJC1"}, "Proteus mirabilis GN 79": {"tested_on": "Proteus mirabilis GN 79", "experiment": "Minimum Growth Inhibitory Concentration (MIC), Proteus mirabilis GN 79", "format": "cell-based", "conditions": "Proteus mirabilis, GN79, read-out: Minimum Growth Inhibitory Concentration (MIC)", "text": "as §1\n6. Proteus mirabilis GN 79"}, "[6]": {"tested_on": "Cephalosporinase-producing Escherichia coli GN206", "experiment": "Treatment of experimental infection in mice (Escherichia coli GN206)", "format": "in vivo", "conditions": "intraperitoneal infection 1.25×10^6 CFU/mouse, subcutaneous one hour after infection, survival at one week"}, "[7]": {"tested_on": "Staphylococcus aureus Smith", "experiment": "Minimum Growth Inhibitory Concentration (MIC), Staphylococcus aureus Smith", "format": "cell-based", "conditions": "Staphylococcus aureus, read-out: Minimum Growth Inhibitory Concentration (MIC)", "text": "as §1\n1. Staphylococcus aureus Smith"}, "Proteus rettgeri GN624": {"tested_on": "Proteus rettgeri GN624", "experiment": "Minimum Growth Inhibitory Concentration (MIC), Proteus rettgeri GN624", "format": "cell-based", "conditions": "Providencia rettgeri, GN624, read-out: Minimum Growth Inhibitory Concentration (MIC)", "text": "as §1\n9. Proteus rettgeri GN624"}, "[8]": {"tested_on": "Escherichia coli NIHJ JC2", "experiment": "Minimum Growth Inhibitory Concentration (MIC), Escherichia coli NIHJ JC2", "format": "cell-based", "conditions": "Escherichia coli, NIHJJC2, read-out: Minimum Growth Inhibitory Concentration (MIC)", "text": "as §1\n3. Escherichia coli NIHJ JC2"}, "[9]": {"tested_on": "Salmonella typhimurium LT2", "experiment": "Minimum Growth Inhibitory Concentration (MIC), Salmonella typhimurium LT2", "format": "cell-based", "conditions": "Salmonella enterica, TYPHIMURIUM, read-out: Minimum Growth Inhibitory Concentration (MIC)", "text": "as §1\n7. Salmonella typhimurium LT2"}, "[10]": {"tested_on": "Streptococcus faecalis ATCC 8043", "experiment": "Minimum Growth Inhibitory Concentration (MIC), Streptococcus faecalis ATCC 8043", "format": "cell-based", "conditions": "Enterococcus faecalis, ATCC8043; Table 1, bacterium 9: Streptococcus faecalis ATCC 8043", "text": "as §1\n9. Streptococcus faecalis ATCC 8043"}, "[11]": {"tested_on": "Enterobacter cloacae G0005", "experiment": "Minimum Growth Inhibitory Concentration (MIC), Enterobacter cloacae G0005", "format": "cell-based", "conditions": "Table 1, bacterium 11: Enterobacter cloacae G0005", "text": "as §1\n11. Enterobacter cloacae G0005"}, "[12]": {"tested_on": "Klebsiella pneumoniae GN 69", "experiment": "Minimum Growth Inhibitory Concentration (MIC), Klebsiella pneumoniae GN 69", "format": "cell-based", "conditions": "GN69; Table 1, bacterium 4: Klebsiella pneumoniae GN 69", "text": "as §1\n4. Klebsiella pneumoniae GN 69"}, "[13]": {"tested_on": "Pseudomonas aeruginosa MB 3833", "experiment": "Minimum Growth Inhibitory Concentration (MIC), Pseudomonas aeruginosa MB 3833", "format": "cell-based", "conditions": "MB3833; Table 1, bacterium 8: Pseudomonas aeruginosa MB 3833", "text": "as §1\n8. Pseudomonas aeruginosa MB 3833"}, "Serratia marcescens N 01": {"tested_on": "Serratia marcescens N 01", "experiment": "Minimum Growth Inhibitory Concentration (MIC), Serratia marcescens N 01", "format": "cell-based", "conditions": "N01; Table 1, bacterium 7: Serratia marcescens N 01", "text": "as §1\n7. Serratia marcescens N 01"}, "Bacillus subtilis": {"tested_on": "Bacillus subtilis", "experiment": "Minimum Growth Inhibitory Concentration (MIC), Bacillus subtilis", "format": "cell-based", "conditions": "Table 1, bacterium 2: Bacillus subtilis", "text": "as §1"}, "Escherichia coli RGN 823": {"tested_on": "Escherichia coli RGN 823", "experiment": "Minimum Growth Inhibitory Concentration (MIC), Escherichia coli RGN 823", "format": "cell-based", "conditions": "RGN823; Table 1, bacterium 3: Escherichia coli RGN 823", "text": "as §1\n3. Escherichia coli RGN 823"}, "[14]": {"conditions": "GN76, Table 1, bacterium 10: Proteus vulgaris GN 76, read-out: Minimum Growth Inhibitory Concentration (MIC)"}, "[15]": {"conditions": "Table 1, bacterium 1: Staphylococcus aureus 209PJC1, read-out: Minimum Growth Inhibitory Concentration (MIC)"}},
  "note": "Where a name gives a salt, the structure may show the parent alone. Read-outs that look alike come from different tables or passages of the source.",
  "data": [
    {"smiles": "CCO/N=C(\\C(=O)N[C@@H]1C(=O)N2C(C(=O)O)=C(CSc3cc[n+](CC(=O)O)cc3)CS[C@H]12)c1csc(N)n1.[Na+]", "values": [
      {"measurement": "MIC", "setting": "Eshcerichia coli GN 206; GN206, read-out: Minimum Growth Inhibitory Concentration (MIC)", "result": 0.39, "unit": "µg/mL"},
      {"measurement": "MIC", "setting": "Eshcerichia coli GN 206; GN206, read-out: minimum growth inhibitory concentration (MIC)", "result": 0.39, "unit": "µg/mL"},
      {"measurement": "MIC", "setting": "[1]", "result": 0.2, "unit": "µg/mL"},
      {"measurement": "concentration at 0.5 h", "setting": "[2]", "result": 28500, "unit": "ng/mL"},
      {"measurement": "concentration at 0.25 h", "setting": "[2]", "result": 31000, "unit": "ng/mL"},
      {"measurement": "concentration at 5 min", "setting": "[2]", "result": 26000, "unit": "ng/mL"},
      {"measurement": "concentration at 1 h", "setting": "[2]", "result": 4000, "unit": "ng/mL"},
      {"measurement": "survival after a week", "setting": "[3]; mice, intravenous, 1 g/kg", "result": "all the mice survived"},
      {"measurement": "LD50 at 168 h", "setting": "[3]; mice, intravenous, survivors after a week", "result": "≥ 1000", "unit": "mg/kg"},
      {"measurement": "MIC", "setting": "[4]", "result": 0.05, "unit": "µg/mL"},
      {"measurement": "MIC", "setting": "Proteus vulgaris GN 76; Proteus vulgaris, GN76, read-out: Minimum Growth Inhibitory Concentration (MIC)", "result": 0.1, "unit": "µg/mL"},
      {"measurement": "MIC", "setting": "[5]; Staphylococcus aureus, 209PJC1, read-out: Minimum Growth Inhibitory Concentration (MIC)", "result": 0.39, "unit": "µg/mL"},
      {"measurement": "MIC", "setting": "Proteus mirabilis GN 79", "result": 0.39, "unit": "µg/mL"},
      {"measurement": "ED50", "setting": "[6]", "result": 0.065, "unit": "mg/mouse"},
      {"measurement": "MIC", "setting": "[7]", "result": 0.78, "unit": "µg/mL"},
      {"measurement": "MIC", "setting": "Proteus rettgeri GN624", "result": 1.56, "unit": "µg/mL"},
      {"measurement": "MIC", "setting": "[8]", "result": 0.78, "unit": "µg/mL"},
      {"measurement": "MIC", "setting": "[9]", "result": 0.1, "unit": "µg/mL"}
    ]},
    {"smiles": "CO/N=C(\\C(=O)N[C@@H]1C(=O)N2C(C(=O)[O-])=C(CSc3cc[n+](CC(=O)O)c4c3CCC4)CS[C@H]12)c1csc(N)n1", "note": "[Example 34, (6R,7R)-7-[(Z)-2-(2-Aminothiazol-4-yl)-2-methoxyiminoacetamido]-3-[(2,3-cyclopenteno-1-carboxymethylpyridinium-4-yl)thiomethyl]-ceph-3-em-4-carboxylicacid sodium salt]", "values": [
      {"measurement": "MIC", "setting": "[10]", "result": 6.25, "unit": "µg/mL"},
      {"measurement": "MIC", "setting": "[11]", "result": 0.2, "unit": "µg/mL"},
      {"measurement": "concentration at 0.5 h", "setting": "[2]", "result": 21000, "unit": "ng/mL"},
      {"measurement": "concentration at 0.25 h", "setting": "[2]", "result": 35000, "unit": "ng/mL"},
      {"measurement": "concentration at 5 min", "setting": "[2]", "result": 25000, "unit": "ng/mL"},
      {"measurement": "concentration at 1 h", "setting": "[2]", "result": 6400, "unit": "ng/mL"},
      {"measurement": "MIC", "setting": "[12]", "result": "≤ 0.025", "unit": "µg/mL"},
      {"measurement": "MIC", "setting": "[13]", "result": 6.25, "unit": "µg/mL"},
      {"measurement": "LD50 at 168 h", "setting": "[3]; iv", "result": "≥ 3000", "unit": "mg/kg"},
      {"measurement": "MIC", "setting": "Proteus vulgaris GN 76; [14]", "result": 0.1, "unit": "µg/mL"},
      {"measurement": "MIC", "setting": "[5]; [15]", "result": 0.78, "unit": "µg/mL"},
      {"measurement": "ED50", "setting": "[6]", "result": 0.3, "unit": "mg/mouse"},
      {"measurement": "MIC", "setting": "Serratia marcescens N 01", "result": 0.05, "unit": "µg/mL"},
      {"measurement": "MIC", "setting": "Bacillus subtilis", "result": 1.56, "unit": "µg/mL"},
      {"measurement": "MIC", "setting": "Escherichia coli RGN 823", "result": "≤ 0.025", "unit": "µg/mL"}
    ]},
    {"smiles": "C[n+]1ccc(SCC2=C(C(=O)[O-])N3C(=O)[C@@H](NC(=O)/C(=N\\OCC(=O)O)c4csc(N)n4)[C@H]3SC2)c2c1CCC2", "note": "[Example 51, (6R,7R)-7-[(Z)-2-(2-Aminothiazol-4-yl)-2-(carboxymethoxyimino)acetamido]-3-[(2,3-cyclopenteno-1-methylpyridinium-4-yl)thiomethyl]-ceph-3-em-4-carboxylic acid sodium salt]", "values": [
      {"measurement": "MIC", "setting": "[10]", "result": 1.56, "unit": "µg/mL"},
      {"measurement": "MIC", "setting": "[11]", "result": 0.05, "unit": "µg/mL"},
      {"measurement": "concentration at 0.5 h", "setting": "[2]", "result": 24000, "unit": "ng/mL"},
      {"measurement": "concentration at 0.25 h", "setting": "[2]", "result": 34000, "unit": "ng/mL"},
      {"measurement": "concentration at 5 min", "setting": "[2]", "result": 27000, "unit": "ng/mL"},
      {"measurement": "concentration at 1 h", "setting": "[2]", "result": 5400, "unit": "ng/mL"},
      {"measurement": "MIC", "setting": "[12]", "result": "≤ 0.025", "unit": "µg/mL"},
      {"measurement": "MIC", "setting": "[13]", "result": 6.25, "unit": "µg/mL"},
      {"measurement": "LD50 at 168 h", "setting": "[3]; iv", "result": "≥ 3000", "unit": "mg/kg"},
      {"measurement": "MIC", "setting": "Proteus vulgaris GN 76; [14]", "result": "≤ 0.025", "unit": "µg/mL"},
      {"measurement": "MIC", "setting": "[5]; [15]", "result": 1.56, "unit": "µg/mL"},
      {"measurement": "ED50", "setting": "[6]", "result": 0.37, "unit": "mg/mouse"},
      {"measurement": "MIC", "setting": "Serratia marcescens N 01", "result": "≤ 0.025", "unit": "µg/mL"},
      {"measurement": "MIC", "setting": "Bacillus subtilis", "result": 0.05, "unit": "µg/mL"},
      {"measurement": "MIC", "setting": "Escherichia coli RGN 823", "result": 0.1, "unit": "µg/mL"}
    ]}
  ]
}
